Measured values reported in patent US20090305888A1, “Materials and Methods for Providing Oxygen to Improve Seed Germination and Plant Growth” (priority 2006, published 2009).
Like-named read-outs stand apart in the source and are kept apart here.

How the values were obtained:
ADH of corn roots = assay: ADH activity of roots of flooded corn plants (FIG. 23); type: in vivo; conditions: flooded for 3 days
[1] = Oxygen release from peroxides in water or nutrient solution and its adjustment; type: physicochemical; conditions: for oxygen level as nutrient strength increases: nutrient solution with or without companion cations, FIGS. 17 and 18; for increase of oxygen liberated per millimole of EDTA: slope of linear fit, FIG. 10
Protocol: One hundred milligrams of each of the above solid compositions comprising oxidizing agents was put in a 50 ml polypropylene tube, respectively, unless specialized. 50 ml de-ionized water or nutrient solution was put into the tubes. The strength of the nutrient solutions was 25%, 50%, 100%, 200% or 400% of Yan's formula (Yan, F. et al., “Adaptation of active proton pumping and plasmalemma ATPase activity of corn roots to low root medium pH,” Plant Physiology, 117:311-319 (1998)). The oxygen solutions were allowed to equilibrate over night before any measurements were made.
Oxygen contents in the solutions were determined with an oxygen electrode and ASET system (Applicable Electronics, Inc). Calibration was made by nitrogen aerating deionized water and air equilibrated deionized water. The deionized water consists of 0% oxygen level and the air equilibrated deionized water consists of 21% oxygen content. The temperature of the deionized water was measured and recorded for every measurement. The actual oxygen content in the deionized water at a specific temperature was derived from a handbook of chemistry (David R. Lide, Handbook of Chemistry and Physics, 79th Edition, 1998-1999, pp. 8-87). A regressive equation was formed based on data from calibration calculations and the handbook. All of the observed values were changed into oxygen contents in micromoles through the regressive equation.
Different levels of companion cations of peroxides or chelate were added to the sample solutions. For example, EDTA was added to the 50 ml tubes with peroxide solutions. The peroxide solutions were made in both deionized water and nutrient solutions. After equilibrating overnight, the oxygen contents of the adjusted solutions were analyzed.

ADH of corn seedlings [2] = assay: ADH activity of flooded corn seedlings grown in soil in pots with oxygen fertilizers (FIG. 28); type: in vivo
Protocol: ADH and NR were extracted in the same extraction buffer including 50 mM Tris-HCl (pH 8.0), 1 mM EDTA, 12 μM mercaptoethanol, and 0.05 mg DTT/ml. Frozen root tissues were ground rapidly in a chilled mortar and pestle with the above chilled extraction buffer. The homogenate was centrifuged at 15 000 g at 4° C. for 15 minutes. One hundred μl of supernatant was added to 800 μl of reaction solution containing 50 mM Tris-HCl buffer at pH 9.0, 1 mM EDTA, and 1 mM NAD. The assay uses 15% (v/v) ethanol as the substrate and measures the production of NADH. Measurement of NADH formation was performed in a spectrophotometer (DU 64, Beckman Instruments, Fullerton, Calif.) for 60 seconds at 340 nm. A unit of ADH is defined as the production of 1 nmol of NADH min^−1 mg^−1 protein.

Bald cypress seedlings = assay: Flooding and salinity of Bald cypress seedlings; type: in vivo; conditions: 8 ppt salinity
From the text: Bald cypress is a plant of great ecological and economic significance in Florida. However, these tough, tolerant, inexpensive and somewhat idiosyncratic trees are at the heart of a fast-disappearing ecosystem. Flooding and salinity caused by hurricanes have accelerated the disappearance of the species. Five basins were set up to mimic flooding basins to study the effects of a solid composition of the invention on alleviating the impact of flooding and salinity on Bald cypress seedlings. These basins were established by using plastic swimming pools with 185×152×23 cm plastic tubs for the combined treatment of flooding and salinity to bald cypress seedlings.
Five levels of salinity were presented: 0, 2, 4, 6 and 8 ppt in sodium chloride. Three flooding levels were presented: 0%, 50% and 100% root submergence. 0% flooding level consisted of 100% of the pots being above the water surface; 50% flooding level consisted of 50% of the height of the pots being submerged; and 100% flooding level consisted of 100% of the height of the pots being submerged.
Two oxygen bioavailable levels were provided for those seedlings that were fully flooded with 8 ppt salinity: (1) with composition comprising oxidizing agent or (2) without composition comprising oxidizing agent in the potted soil. […] Survival rates of the potted seedlings were observed and calculated for each of the treatments.

[3] = Solubility product (Ksp) of the peroxides; type: physicochemical
[4] = test system: nitrate reductase (NR) of corn seedlings; conditions: nutrient solution of 2 mM hydrogen peroxide, FIG. 27
Protocol: NR assays were performed essentially as described by the protocol of Datta and Sharma (Rupali Datta and Rameshwar Sharma, “Temporal and spatial regulation of nitrate reductase and nitrite reductase in green maize leaves,” Plant Science, 144:77-83 (1999)). NR activity was measured immediately. 200 μl of supernatant was added to 800 μl of reaction solution consisting of 50 mM Tris-HCl buffer (pH 8.0), 1 mM EDTA, 100 μM NADH, 10 mM KNO3 and 1 μM Na2MoO4 in a 2 ml eppendorf tube. The reaction was performed in a water bath of 30° C. and terminated after 60 min by adding 500 μl of an equal volume of sulfanilamide (1% [w/v] in 3 n HCl) and naphthylethylene-diamine dihydrochloride (0.05% [w/v]) to the reaction mixture. The samples were colorimetrically measured at 540 nm. One unit of NR activity was defined as the amount required to produce 1 nmol of nitrite min^−1 mg^−1 protein.

corn root = conditions: nutrient solution with 1 mM H2O2 for two days, air bubbling (normoxia), FIG. 31
Protocol: Each of the untreated 1.5 mm borosilicate glass capillaries (cat no. TW150-4) of 10 cm length was pulled into two micropipettes through a Sutter P-97 at 545° C. The freshly pulled micropipettes were silanized at 200° C. with N,N-Dimethyltrimethylslylamine according to Smith's method (Smith, P J S et al., “Self-referencing, non-invasive, ion selective electrode for single cell direction of trans-plasma membrane,” Microscopy Research and Technique, 46:398-417 (1999)).
The micropipettes were backfilled with a H^+ probe backfilling solution of 50 mM KCl and 50 mM HK2PO4.
A rubber groove of 20 cm in length, 5 cm in width, and 1 cm in height was connected to the pot with 1800 ml nutrient solution via a peristaltic pump (Model: 77120-62, 12 VDC 1 AMP, Mfg by Barnant Company) and non-permeable oxygen tubing. One radicle root was appropriately stabilized in the groove with 4 to 5 Minucie stainless-steel needles. Microelectrodes were calibrated before and after each experiment. Calibrations were done in standard pH 6, 7, and 8 solutions (Fisher Scientific) at 25° C. […] Following calibration, the microelectrode was positioned on the targeted radicle root. The scanning started from the root tip and the root was scanned 100 μm by 100 μm near the root tip. Then the scanning intervals were adjusted gradually from 200 μm to 1000 μm or even longer. About 20000 μm along the root was scanned. […]

corn seeds [5] = conditions: for germination rate: FIG. 2
Protocol: Corn seeds of FR27 x FRM017 (GRADE: 24RD) were provided by Illinois Foundation Seeds Inc. Two sets of seeds were used: one set of seeds consisted of fresh seeds and the other set of seeds consisted of seeds that were […].
H2O2 methods: 30 seeds and 50 ml 0.5 mM Ca (as CaSO4) with 3/5000, 3/4000, 3/3000, 3/2000, 3/1000 or 3/100 H2O2, separately, were placed into 9 cm dishes. The seeds were soaked in these solutions for 24 hours and then put on and covered by wet napkins. The napkins were wetted in the soaking solutions, respectively.

ADH of corn seedlings [6] = conditions: nutrient solution of 2 mM hydrogen peroxide, FIG. 26
Protocol: The enzyme assay was performed according to the procedures described by Chung and Ferl (“Arabidopsis Alcohol Dehydrogenase Expression in Both Shoots and Roots Is Conditioned by Root Growth Environment,” Plant Physiol, 121:429-436 (1999)) and modified slightly. ADH and NR were extracted in the same extraction buffer including 50 mM Tris-HCl (pH 8.0), 1 mM EDTA, 12 μM mercaptoethanol, and 0.05 mg DTT/ml. Frozen root tissues were ground rapidly in a chilled mortar and pestle with the above chilled extraction buffer. The homogenate was centrifuged at 15 000 g at 4° C. for 15 minutes. One hundred μl of supernatant was added to 800 μl of reaction solution containing 50 mM Tris-HCl buffer at pH 9.0, 1 mM EDTA, and 1 mM NAD. The assay uses 15% (v/v) ethanol as the substrate and measures the production of NADH. Measurement of NADH formation was performed in a spectrophotometer (DU 64, Beckman Instruments, Fullerton, Calif.) for 60 seconds at 340 nm. A unit of ADH is defined as the production of 1 nmol of NADH min^−1 mg^−1 protein.

corn seeds [7] = conditions: 3/2000 hydrogen peroxide for one day, embryos or endosperm, FIG. 6
Protocol: The tested seeds were stabilized as described above. The seed samples were soaked in 0.5 mM CaSO4 solution with or without 3/2000 hydrogen peroxide for one day before any measurements were made. Pt/Ir oxygen electrodes were used. The microelectrodes were calibrated before and after each experiment. Calibrations were performed in deionized water saturated with air (which includes 21% oxygen concentration) and then bubbled with nitrogen gas for at least 30 min (so as to provide 0% oxygen concentration). Ten scans were done on either embryos or endosperms.

[8] = test system: Alcohol dehydrogenase (ADH) of corn embryos; conditions: 3/2000 hydrogen peroxide, embryos facing downward, 48 hours after germination at 25° C., FIG. 4
Protocol: Alcohol dehydrogenase (“ADH”) activities of corn embryos placed in environments with different concentrations of bioavailable oxygen at 48 hours after germination at 25° C. were observed. Before germination, corn seeds were soaked in 0.5 mM CaSO4 solution, in aeroponics, or in 3/2000 H2O2 for 24 hours. All of the embryos were exposed to air except for one sample group treated with water, which was placed into soil.
Following treatment, each corn seed was cut into two halves on the embryo. Four halves of embryos were homogenized in extraction buffer including 50 mM Tris-HCl (pH 8.0), 1 mM EDTA, 0.5 mg/ml DTT, and 12 μM mercaptoethanol. The suspension solution of the enzyme was centrifuged twice at 15000 rpm for 5 min in order to separate oil (on the top) from pellets (at the bottom). The supernatant from the second centrifuge was used to measure ADH activity.
100 μl of the enzyme solution and 900 μl of reaction solution that included 50 mM Tris-HCl (pH 9.0), 1 mM EDTA, and 1 mM NAD were incubated in 1.5 ml Eppendorf tubes in a water bath at 30° C. for 3 min. Then, 100 μl 15% ethanol and the reaction solution were added directly to cuvette. Reaction time was 1 min. in the cuvette at 340 nm. The assay uses ethanol as the substrate and measures the production of NADH. […] The relative ADH activity was calculated based on taking the ADH activity of corn seeds germinated in aeroponics as 100%.

[9] = test system: corn seed embryos or endosperms; conditions: 3/2000 hydrogen peroxide for one day, medium 100 μM CaCl2, FIG. 5
Protocol: 1.5 mm borosilicate glass capillaries (cat no. TW150-4) that were 10 cm in length were pulled into two micropipettes through a Sutter P-97 at 545° C. The freshly pulled micropipettes were silanized at 200° C. with N,N-Dimethyltrimethylslylamine according to Smith's method (Smith, P J S et al., “Self-referencing, non-invasive, ion selective electrode for single cell direction of trans-plasma membrane,” Microscopy Research and Technique, 46:398-417 (1999)).
Micropipettes were backfilled with H^+ probe backfilling solution of 50 mM KCl and 50 mM HK2PO4.
45 g of Sylgard 184 silicone elastomer and 5 g of Sylgard 184 curing agent (Dow Corporation, USA) were poured into the bottom of a 10 cm Pyrex dish in order to provide a medium for stabilizing the tested treated seeds. One seed was appropriately stabilized in the center of the Pyrex dish with 4 to 5 stainless-steel needles.
Microelectrodes were calibrated before and after each experiment. Calibrations were performed at standard pH 6, 7, and 8 solutions (Fisher Scientific) at 25° C. The Nernst Slopes (in mV decade^−1) were equal or close to 59. Following calibration, the microelectrode was positioned on both the embryos and endosperm of the targeted seed. Then, the embryo and endosperm were, respectively, scanned 100 μm by 100 μm. At least 10 scans were done on either embryo or endosperm.

[10] = cited from earlier work

## [Ca+2].[O-][O-] [calcium peroxide]
ADH of corn roots; 18 g per pot
  ADH level compared with control: almost as good as the control
ADH of corn roots
  ADH activity in roots as more solid composition was used: the less ADH activity observed in the tested roots
[1]; 500 mg solid composition in 50 ml deionized water, FIG. 9
  oxygen released into water: released more oxygen than magnesium peroxide
[1]
  oxygen level as nutrient strength increases: increases when the nutrient strength increases
  increase of oxygen liberated per millimole of EDTA: about 19 micromoles
ADH of corn seedlings [2]
  effect on ADH of seedlings suffering from flooding: greatly lowered the ADH of the seedlings suffering from flooding
Bald cypress seedlings; 100% flooding
  death of seedlings: No seedlings died
Bald cypress seedlings; 100% roots submerged for four days, 20 g per pot, FIG. 32
  growth of seedlings: could grow
[3]
  Ksp relative to magnesium peroxide: about 3000 times

## OO [hydrogen peroxide]
[4]
  NR level compared with hypoxic seedlings: greatly lower than those of hypoxic seedlings
Corn root
  protons excreted by roots relative to hypoxia or anoxia: seven to ten
Corn seeds [5]; 3/100 H2O2, third day after germination
  root lengths: 6.8±1.7 mm
Corn seeds [5]; 3/2000 H2O2, FIG. 1
  germination rates among varying concentrations of H2O2: the best germination rates
Corn seeds [5]; 3/2000 H2O2, FIG. 3
  germination at 24 hours: all of the seeds were able to germinate at 24 hours
Corn seeds [5]; 3/2000 H2O2, new seeds
  germination rate: 95.6%
Corn seeds [5]; 3/2000 H2O2, old seeds
  germination rate: 94.4%
Corn seeds [5]; 3/2000 H2O2, third day after germination
  root lengths: 34.8±1.7 mm
Corn seeds [5]; H2O2 3/5000 to 3/100, 48 hours after germination, FIG. 1
  germination rates of corn seeds compared with non-hydrogen peroxide exposure: significantly better germination rates than non-hydrogen peroxide exposure
ADH of corn seedlings [6]
  ADH level compared with control: slightly higher that that of the control
  ADH level compared with hypoxic seedlings: greatly lower than those of hypoxic seedlings
Corn seeds [7]
  oxygen consumption rate relative to without hydrogen peroxide: about two
[8]
  diminished ADH activity: about 40%
[9]
  proton flux direction: proton efflux occurs heavily

## [Mg+2].[O-][O-] [magnesium peroxide]
ADH of corn roots
  ADH activity in roots as more solid composition was used: the less ADH activity observed in the tested roots
[1]
  oxygen level as nutrient strength increases: very smooth when the nutrient strength increases
  increase of oxygen liberated per millimole of EDTA: about 14 micromoles
ADH of corn seedlings [2]
  effect on ADH of seedlings suffering from flooding: greatly lowered the ADH of the seedlings suffering from flooding
[10]; after the first six days
  oxygen released by zero order constant release: 90%
[10]; first six days
  oxygen released by first order release: 10%

## O=C([O-])[O-].O=C([O-])[O-].OO.OO.OO.[Na+].[Na+].[Na+].[Na+] [sodium percarbonate]
ADH of corn roots; 5 g
  ADH level compared with flooded treatment: almost as bad as the flooded treatment without the supply of solid compositions
ADH of corn roots
  ADH activity in roots as more solid composition was used: the less ADH activity observed in the tested roots
